Reference: patent publication US6624140B1, “Synthetic peptides with antimicrobial and endotoxin neutralizing properties for management of the sepsis syndrome” (Academisch Ziekenhuis Bij de Universiteit van Amsterdam …, priority 1997, dated 2003)
No end group written: not given here.

Assays:
[1] = Capture of TAG-labeled endotoxin by immobilized peptide (ECL); type: binding, Escherichia coli; conditions: biotinylated BP2 on streptavidin beads; TAG-labeled J5 LPS
Procedure: FIGS. 5A and 5B. Capture of labeled endotoxin by immobilized synthetic peptide. 2 ng of biotinylated synthetic peptide BP2, immobilized on 20 μg of streptavidin-coated supramagnetic polystyrene beads (Dynabeads M-280, Dynal A. S., Oslo, Norway) was incubated with the indicated amounts of chemiluminescent TAG-labeled E. coli J5 LPS for 20 min at 23° C. The amount of captured endotoxin, after a washing cycle with Phosphate buffer containing 0.1% (v/v) Triton X100, was determined by electochemiluminescence detection (ECL) using an Origen Analyser (Igen Inc., Rockville, Mass.). […] The values are the means of triplicate determinations corrected for non-specific binding.
Capture of the TAG labeled J5 LPS by immobilized synthetic peptide was quantitated by electrochemiluminescence detection subsequent to washing steps with phosphate buffer containing 0.1% (w/v) Triton X100 to remove excess unbound LPS. […] This confirms the high capacity of immobilized peptides of the invention for endotoxin in solution. […] LPS with high affinity and are universal lipid A binding ligands. The above mentioned microplate experiments were employed to determine the endotoxin binding activity and specificity of the synthetic peptides and formed the basis for the development of a novel highly sensitive endotoxin assay. […] The same degree of concentration-dependent inhibition was observed when various amounts of added endotoxin were assayed directly in plasma dilutions.

TNF-α production = assay: TNF-α in whole blood ex vivo, peptide added before LPS challenge; type: cell-based, human
Procedure: FIG. 12. Effect of pre-challenge addition of synthetic peptides on TNF-a levels induced by E. coli 0111:B4 LPS in whole blood ex vivo. The synthetic peptides BP2, BP2.1 or BP2.2 were added to whole blood containing heparin at 2 I.U/ml at the concentrations indicated and incubated for 10 min at 37° C. TNF-α concentrations were measured after incubation for 4 h at 37° C. subsequent to addition of E. coli 0111:B4 LPS at 1 ng/ml. The values represent the means of triplicate experiments. Controls only contained added LPS.
To determine whether addition of synthetic peptide to whole blood ex vivo prior to endotoxin challenge was effective in endotoxin neutralization assayed in terms of cytokine production, a synthetic peptide of the invention BP2, and the analogues BP2.1 or BP2.2 were added at concentrations of 2.5 to 20 μg/ml to whole blood and incubated for 10 min at 37° C. prior to the addition of 1 ng/ml E. coli 0111:B4 LPS. TNF-α concentrations were determined as previously described. […] The structurally related LPS-binding synthetic peptide analogues BP2.1 and BP2.2 were ineffective in endotoxin neutralization under these conditions.

[2] = Murine model of lethal endotoxemia; type: in vivo, mice; conditions: at 7 days; 5 mg/kg i.p. 20 min before Actinomycin D 800 μg/Kg plus LPS 5 μg/Kg; three experiments combined
Procedure: FIG. 13. Efficacy of synthetic peptide BP2 on survival in a murine model of lethal endotoxemia. Outbred femal Swiss-Webster mice of 7 to 8 weeks, weighing 28 to 30 g were treated with BP2 peptide by intraperitoneal (i.p) administration of a dose of 5 mg/Kg in pyrogen-free saline. Twenty minutes later the mice were challenged by i.p administration of the sensitizing agent Actinomycin D at 800 μg/Kg plus lethal concentrations of purified E. coli 0111:B4 LPS at 5 or 11 μg/Kg. Control groups only received Actinomycin D plus LPS. Survival was recorded at 24 h intervals during a 7 day period of observation. The indicated values are the combined results of three independent experiments.
The efficacy of the peptides of the invention in the protection of experimental animals against the toxic effects of LPS or live pathogenic bacteria was investigated with the use of murine models of lethal endotoxemia and peritonitis Laboratory mice, which are normally tolerant to high doses of endotoxin and require a lethal dose (LD100) of approximately 1 mg, may be sensitized with Actinomycin D to 10,000×lower amounts of endotoxin for lethality. […] The survival of the treated animals was recorded at 24 h intervals during a seven day period of observation and compared with the control groups. […]

[3] = test system: Escherichia coli strain 018:K1:H7 Bort; assay: Murine model of lethal peritonitis; type: in vivo, mice; conditions: at 7 days; 100 μg/mouse (4 mg/kg) 1 h after 10^4 CFU i.p.; two experiments combined
Procedure: FIG. 14. Efficacy of synthetic peptide BP2 on survival in a murine model of lethal peritonitis. Outbred female Swiss-Webster mice of 7 to 8 weeks, weighing 28 to 30 g were administered a predetermined lethal dose of 104 colony forming units (CFU) of the pathogenic strain of live E. coli […] Bort organisms by intraperitoneal (i.p.) administration in 0.5 ml pyrogen-free saline. After a delay of 1 h after infection, treated groups of mice received synthetic BP2 peptide in p.f saline at a dosage of 100 μg/mouse (approximately 4 mg/kg) and negative control groups only saline. Survival was recorded at 12 or 24 h intervals during a 7 day period of observation. […]
The efficacy of the peptides of the invention in the protection of experimental animals against the toxic effects of LPS or live pathogenic bacteria was investigated with the use of murine models of lethal endotoxemia and peritonitis Laboratory mice, which are normally tolerant to high doses of endotoxin and require a lethal dose (LD100) of approximately 1 mg, may be sensitized with Actinomycin D to 10,000×lower amounts of endotoxin for lethality. […] The survival of the treated animals was recorded at 24 h intervals during a seven day period of observation and compared with the control groups. […] The survival of the animals was recorded at 12 or 24 h intervals during a 7 day period of observation and compared with the control groups. […]

GKWKLFKKAFKKFLKILAC-OH [BP2, Gly-Lys-Trp-Lys-Leu-Phe-Lys-Lys-Ala-Phe-Lys-Lys-Phe-Leu-Lys-Ile-Leu-Ala-Cys]
molar excess of LPS up to which binding response is linear [1]: 2 fold | molar excess of endotoxin at saturation [1]: 8 fold | stochiometric ratio of peptide to LPS up to which capture is linear [1]: 1 to 2 | endotoxin neutralization (TNF-α production) (TNF-α production; 2.5 to 20 μg/ml added 10 min before 1 ng/ml LPS): dose-dependent inhibition | inhibition of cytokine (TNF-α) production (TNF-α production; peptide 20 μg/ml added 10 min before 1 ng/ml LPS): 57% | survival [2]: 75% | survival [3]: 78.5%
